In experiment [1] the test system is Primary mouse astrocytes (C8D1A). The experiment in a line: IC50 on normal cells (XTT / cell death by PI staining). The conditions noted are these: C8-D1A, 48 h of treatment. It is filed as cell-based. An excerpt: We then determined the selectivity index (SI), which is the IC50 value for normal cells divided by the IC50 value for tumour cells, to assess the overall toxicity on normal tissues. These IC50 values determined by XTT assays or measurement of cell death by PI staining were nearly equivalent (Figure 3E,F). Primary mouse astrocytes (C8D1A) were selected based on their nervous system lineage. […] The SI was thus 6.44 for Daoy, 2.84 for ONS-76, 10.7 for HD-MB03, and 3.94 for D341Med, indicating selectivity towards tumour cell death at the doses considered. These values are also consistent with those determined for renal cancer cells. […]
(§1) 1500 Daoy, ONS ‐76, HD ‐MB03 or D341 Med cells were sown in triplicate in plates with six wells and the cells were counted daily for 8 days using a Coulter counter (Ville‐ pinte). The relative number of cells (compared to day 1) was determined daily. […]
(§2) Y = Y0 * exp(k * X) (Y= Cell number at day X; Y0= Cell number at day 0 (graphically calculated); X= Day following cell plating (cells plated at X0=0); k= Exponential growth constant rate. Doubling times were compared.
(§3) 150 Daoy/DR1/DR2/ ONS ‐ 76 and 300 HD ‐ MB03/HR1/HR2 cells were seeded in trip‐ licate in 6‐well plates in the presence or absence of treatment (1 or 2∙5μM MCK140 or DMSO as control). […] The number of clones was quantified using ImageJ software. […]

Experiment [2] concerns DR1/DR2 and HR1/HR2 radio-resistant cells. The experiment in a line: Cell proliferation assay (cell counting), radiation-resistant cells. The conditions noted are these: 1 µM. The format is cell-based, human. Here is the method: Figure 8 C29 is efficient on radioresistant MB cell lines. (A) Cell death after 48 h of treatment with control (DMSO, CT) or C29 1, 2.5, or 5 µM on radiation-resistant cells (RR) and normal cells (N), n = 3. Statistics were performed using the one-way method ANOVA. * p < 0.05, ** p < 0.01, *** p < 0.001. For this figure, DR1 = D1, DR2 = D2, HR1 = H1, HR2 = H2, and C8D1A = C8. (B) Proliferation of DR1/DR2 (A) and HR1/HR2 (B) radio-resistant cells after 1 µM C29 treatment or control (DMSO), n = 3. (C) Clonogenic assay on DR1, DR2 (n = 3) and HR1, HR2 (n = 3) cells after treatment with control (DMSO) or C29 (1 µM or 2.5 µM). […] Results are expressed as percentage of control (n = 3). […]
as §1, §2, §3

One may read the IC50 as the concentration at which inhibition is half-maximal. The molecule `O=C(Nc1cccc(Cl)c1)Nc1nc2ccc([N+](=O)[O-])cc2s1` [C29, 1-(3-chlorophenyl)-3-(6-nitrobenzo[d]thiazol-2-yl) urea] came in with an IC50 in experiment [1] of 19.3 µM. For the same molecule, the Proliferation result in experiment [2] was “reduce proliferation”.

The record behind these values is paper PMC9738107, “Targeting of the ELR+CXCL/CXCR1/2 Pathway Is a Relevant Strategy for the Treatment of Paediatric Medulloblastomas” (Cells, 2022).
